# Results reported in patent publication US11524950B2, “Treatment of immune-related and inflammatory diseases” (Celgene Corporation, priority 2012, dated 2022).
# Where two headings read alike, the source gives them in different places.
# Tests used:
# [1] = tested on: Human umbilical vascular endothelial cells; experiment: Human umbilical vascular endothelial cell tube formation assay; format: cell-based; settings: VEGF-induced; at 10 μM; p<0.05 vs stimulated DMSO control
# Description: Human Umbilical Vascular Endothelial Cell Tube Formation Assay: Compounds were tested in the growth factor-induced HUVEC tube formation assay. The tube formation plates were incubated at 37° C. for 30 minutes for matrigel to polymerize. The HUVECs were starved in 0.1% BSA basal EBM2 medium for 5 hours after washing with the same medium 3 times. The cells were trypsinized and centrifuged. Then 25 μL of 4× serially diluted compounds (10, 1, 0.1, 0.01, 0.001, 0.0001, 0.00001 μM) were added in duplicate with 50 μL of 2×10^4 cells/well to tube formation plates coated with matrigel. […] of 4×VEGF (final concentration=25 ng/mL) or bFGF (final concentration=10 ng/mL) were added to the plates. The cells were then incubated overnight (˜18 hours) at 37° C. in a humidified incubator. The tubule webs were stained with calcein AM at […] in 2% FBS/HBSS for 30 minutes and images taken by fluorescence microscopy. The tubules were quantified by the MetaMorph tube formation software program for tube area and tube length.
# The percentage inhibition of cell proliferation, tube formation, migration, and invasion was calculated by subtracting the result for unstimulated DMSO control from test sample results, averaging all replicates, and normalizing to the growth factor-stimulated DMSO control (0% inhibition). The IC50 values were calculated by using GraphPad Prism 5.0.
# [2] = tested on: MRL/MpJ-Faslpr/J mouse; experiment: MRL/MpJ-Faslpr/J mouse model of systemic lupus erythematosus; format: in vivo; settings: 30 mg/kg; week 4
# [3] = tested on: NZBWF1/J mouse; experiment: NZBWF1/J mouse model of systemic lupus erythematosus; format: in vivo; settings: 30 mg/kg; week 4
# [4] = tested on: CTGF, PAI-1, COL1A1, TGFB1; experiment: Tsk-1 mouse skin TGF-β pathway gene overexpression (qRT-PCR); format: in vivo; settings: 30 mg/kg
# Text: Next, to examine the effect of the compound on the overexpression of TGF-β pathway genes in Tsk-1 mouse skin, qRT-PCR was used to measure mRNA levels for six genes: CTGF, PAI-1, COL1A1, α-smooth muscle actin (ALPHA SMA), cartilage oligomeric protein 1 (COMP), and TGFB1. Overexpression was defined as the excess mRNA levels observed in Tsk-1 mouse skin compared to normal pa/pa mouse skin. […] PAI-1 and TGFB1 gene overexpression was not inhibited by the compound.
# [5] = tested on: SSc fibroblasts; experiment: Fibrotic gene expression in SSc skin fibroblasts (real time PCR); format: cell-based, human; settings: 24 hours
# Description: Cell cultures: Human normal and scleroderma skin fibroblasts were cultured in DMEM containing 10% fetal bovine serum (FBS). The cells were maintained in a humidified 5% CO2, 95% air incubator at 37° C. After confluence was reached, the cells were harvested with 0.05% trypsin and subcultured. Cells were used in the 3rd-5th passage.
# Experimental design: Cells were grown to 70-80% confluence and placed into quiescent state by a reduction in serum concentration to 0.4% for overnight. The effects of the compound on TGFβ fibrotic effects and on NL and SSc fibrotic gene expression were tested.
# Effects of the compound on SSc-FB: SSc fibrobasts were treated with the compound at different concentration and gene expression levels of Collagen 1A1 (COL1), α-smooth muscle actin (α-SMA), fibronectin (FN), matrix metallopeptidase 1 (MMP1), plasminogen activator inhibitor (PAI), and DNA (cytosine-5-)-methyltransferase 1 (Dnmt1) were determined 24 hours later by real time PCR.
# Quantitative Real-Time PCR: Total RNA was extracted from cells using RNeasy kit. RNA concentration was measured and 1 ug of RNA was reverse transcribed to cDNA using RT-First strand kit. The cDNA was then amplified using respective primers and Power SYBR Green PCR Master Mix. The amplicon (150-200 bp) was detected by ABI 7500 Real Time PCR System. All the target genes were normalized to GAPDH and relative fold changes were calculated. Each sample was assessed in triplicate.
# [6] = tested on: H929 MM cell lines; experiment: Cell proliferation in lenalidomide-sensitive and resistant H929 MM cells (7-AAD); format: cell-based; settings: Homo sapiens, NCI-H929, 120 h, 5 days, read-out: IC50 for inhibition of proliferation
# Description: CRBN ubiquitination was measured in HEK293T cells, which were transfected with an amino-terminal His-biotin-tagged CRBN construct, then preincubated with compounds for one hour followed by treatment with the MG132 proteasome inhibitor (to arrest degradation of ubiquitinated proteins). Cells were lysed and processed to measure CRBN ubiquitination by SDS-PAGE and immunoblot analysis using an anti-ubiquitin antibody. Cell proliferation studies were conducted in enalidomide-sensitive and refractory multiple myeloma cells. Lenalidomide-resistant or sensitive H929 MM cell lines were treated with Compound IA for 5 days, and then cell proliferation and viability were assessed by 7-aminoactinomycin D (“7-ADD”) staining. T-cell costimulation was measured in purified primary human T cells stimulated using immobilized anti-CD3 antibody in cell culture for 2 days, and cytokine secretion was measured by ELISA.
# [7] = tested on: H929 cells; experiment: H929 cell cycle (S-phase) and survivin, pRB, p27 expression; format: cell-based
# [8] = tested on: IgM; experiment: IgM production in normal PBMC differentiation cultures (ELISA); settings: Homo sapiens, read-out: IgM IC50 (nM) Normal (n = 3)
# Description: (§1) Step 1—B cell Activation—day 0 through day 4: Prepare fresh B cell cocktail by adding 50 μg/mL of human transferrin to B cell media. (Iscoves+10% PFBS, 1% P/S, and 5 μg/mL human insulin). […] Five milliliters (1×10^5/ml) of CD19+ B cell were added to each well of a 6 well flat-bottom plate (final cell count=5×10^5/well). Five L (lx)±compound/DMSO was added to each test well (0.1% final DMSO) and incubated at 37° C. for 4 days.
# (§2) Step 2—Plasmablast Generation—day 4 through day 7: Cells were harvested and counted on the cell counter; an aliquot was removed for flow analysis, the remaining cells were washed with PBS. Prepare fresh B cell cocktail by adding 1 μg/ml of human transferrin to B cell media. […] Add B cell differentiation cocktail (final concentration): recombinant human IL-2 (20 U/mL), IL-10 (50 ng/mL), IL-15 (10 ng/mL), IL-6 (50 ng/mL) to cells. Add fresh B cell cocktail and transfer cells back to the original wells and bring volume back to 5 mL. Five L (1×)±compound/DMSO was added to each test well (0.1% final DMSO) and incubated at 37° C. for 4 days.
# (§3) Supernatants (from section 8.2.3) were harvested and analyzed by ELISA for IgG and IgM production (ZeptoMetrix Corp. Buffalo, N.Y.).
# (§4) The data was graphed using GraphPad Prism 5.0 software.
# IgM and IgG were measured by ELISA.
# [9] = tested on: IgG; experiment: IgG production in normal B cell / PBMC differentiation cultures (ELISA); settings: Homo sapiens
# Description: as §1, §2, §3, §4
# IgM and IgG were measured by ELISA.
# [10] = Tsk-1 vs pa/pa mouse skin mRNA, p≤0.001
smiles,measurement,setting,value
"O=C1CC[C@@H](N2Cc3c(OCc4ccc(CN5CCOCC5)cc4)cccc3C2=O)C(=O)N1 [R-enantiomer, (R)-3-[4-(4-morphlin-4-ylmethylbenzyloxy)-1-oxo-1,3-dihydro-isoindo-2-yl]piperidine-2,6-dione]",tube area and length,[1],significant inhibition
"O=C1CC[C@H](N2Cc3c(OCc4ccc(CN5CCOCC5)cc4)cccc3C2=O)C(=O)N1 [Test compound, (S)-3-[4-(4-morphlin-4-ylmethylbenzyloxy)-1-oxo-1,3-dihydro-isoindo-2-yl]piperidine-2,6-dione]","Splenic B cells, increase",[2],37%
same,"anti-double stranded DNA autoantibody level, decrease",[2],25%
same,peripheral blood B cells,[2],no change
same,"anti-double stranded DNA autoantibody level, increase",[3],86%
same,"peripheral blood B cells, decrease",[3],25%
same,splenic B cells,[3],no change
same,PAI-1 gene overexpression,[4],not inhibited
same,TGFB1 gene overexpression,[4],not inhibited
same,reduction of overexpression of COL1A1,[4]; [10],129%
same,reduction of overexpression of CTGF,[4]; [10],79%
same,expression of COL1 mRNA,[5],dose dependently reduced
same,expression of Dnmt1,[5],dose dependently reduced
same,expression of FN mRNA,[5],dose dependently reduced
same,expression of MMP-1,[5],dose dependently increased
same,expression of PAI,[5],dose dependently reduced
same,expression of aSMA mRNA,[5],dose dependently reduced
same,IC50,[6]; DMSO-treated subclone,40 nM
same,IC50,[6]; lenalidomide resistant subclones,510 to 1580 nM
same,IC50,[6]; parental H929 cell line,10 nM
same,decrease in cell cycle (S-phase),[7]; 24 hours of treatment,50%
same,expression of cyclin-dependent kinase inhibitor p27,[7]; 48 hours,increased expression
same,expression of retinoblastoma protein (pRB),[7]; 48 hours,decreased expression
same,expression of survivin,[7]; 48 hours,decreased expression
same,IC50,[8],0.35 nM
same,IC50,"[9]; B-cell, read-out: secreted IgG production IC50",1.8 nM
same,IC50,"[9]; PBMC, read-out: IgG IC50 (nM) Normal (n = 3)",2.1 nM
same,IC50,[9]; read-out: IgG production IC50,1.8 nM
